1 compound from paper PMC9245008 (ACS chemical biology, 2022) can be followed below.

The target in data set [1] is T1, ULK2 (Homo sapiens, UniProt Q8IYT8).
T1 sequence (Q8IYT8 1-1036): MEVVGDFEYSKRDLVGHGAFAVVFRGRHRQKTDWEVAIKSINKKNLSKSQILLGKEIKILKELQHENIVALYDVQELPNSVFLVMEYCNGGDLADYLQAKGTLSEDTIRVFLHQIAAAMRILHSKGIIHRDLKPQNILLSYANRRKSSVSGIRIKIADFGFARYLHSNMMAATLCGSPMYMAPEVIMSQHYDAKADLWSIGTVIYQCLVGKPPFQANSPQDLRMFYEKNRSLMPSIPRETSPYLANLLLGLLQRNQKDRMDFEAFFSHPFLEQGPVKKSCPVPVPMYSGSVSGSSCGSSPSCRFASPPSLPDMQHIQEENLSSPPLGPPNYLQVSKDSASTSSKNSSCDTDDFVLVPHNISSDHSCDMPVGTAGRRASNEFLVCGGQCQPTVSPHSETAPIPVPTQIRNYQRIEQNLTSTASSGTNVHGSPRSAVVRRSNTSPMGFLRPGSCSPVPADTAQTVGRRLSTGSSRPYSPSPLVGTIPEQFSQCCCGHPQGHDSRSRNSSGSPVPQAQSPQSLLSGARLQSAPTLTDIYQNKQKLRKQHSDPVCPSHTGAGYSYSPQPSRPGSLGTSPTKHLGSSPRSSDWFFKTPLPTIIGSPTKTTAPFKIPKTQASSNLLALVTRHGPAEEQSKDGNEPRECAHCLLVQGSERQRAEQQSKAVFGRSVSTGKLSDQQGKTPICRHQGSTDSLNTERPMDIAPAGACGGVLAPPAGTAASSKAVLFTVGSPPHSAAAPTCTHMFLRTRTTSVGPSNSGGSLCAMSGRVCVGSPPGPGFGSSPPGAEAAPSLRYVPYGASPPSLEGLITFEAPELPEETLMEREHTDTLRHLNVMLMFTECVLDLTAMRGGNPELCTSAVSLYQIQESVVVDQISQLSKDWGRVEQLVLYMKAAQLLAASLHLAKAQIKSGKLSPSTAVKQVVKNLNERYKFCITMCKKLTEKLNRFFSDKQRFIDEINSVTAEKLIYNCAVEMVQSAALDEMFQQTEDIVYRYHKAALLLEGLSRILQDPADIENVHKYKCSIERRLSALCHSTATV
The data set can be described thus: Dose–response of top 10 kinase hits. In kind it is biochemical. The following applies: read-out: IC50 ULK2, n = 2.

For data set [2], the system named is TNF expression in THP-1 human macrophages. The experiment in a line: Cytokine profile in stimulated THP-1 human macrophages. In kind it is cell-based. Conditions: 10 μM; THP-1 macrophages stimulated with LPS and IFNγ; vs vehicle.
Data set [3] addresses T2, TAK1 (Homo sapiens, UniProt O43318).
T2 sequence (O43318 with tags, fused parts or gaps limits assumed): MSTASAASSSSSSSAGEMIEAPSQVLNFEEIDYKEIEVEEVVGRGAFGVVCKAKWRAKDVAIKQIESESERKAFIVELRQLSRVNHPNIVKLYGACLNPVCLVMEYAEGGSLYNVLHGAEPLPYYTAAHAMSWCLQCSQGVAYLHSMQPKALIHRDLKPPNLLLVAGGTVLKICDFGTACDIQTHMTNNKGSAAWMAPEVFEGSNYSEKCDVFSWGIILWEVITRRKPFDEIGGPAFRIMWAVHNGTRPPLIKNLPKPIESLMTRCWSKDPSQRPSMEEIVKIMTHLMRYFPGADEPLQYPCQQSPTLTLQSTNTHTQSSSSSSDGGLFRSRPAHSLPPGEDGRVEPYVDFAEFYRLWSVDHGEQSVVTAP
The data set can be described thus: Dose–response of top 10 kinase hits. In kind it is biochemical. The following applies: read-out: IC50 TAK1, n = 2.

Data set [4] is described as follows: Oral pharmacokinetics in Sprague-Dawley rats. It counts as in vivo.
The target of data set [5] is IRAK1 (Homo sapiens, UniProt P51617). The data set can be described thus: MRC Dundee kinase panel screen at 10 μM. In kind it is biochemical.
The target of data set [6] is T3, IRAK4 (Homo sapiens, UniProt Q9NWZ3).
T3 sequence (Q9NWZ3 1-460): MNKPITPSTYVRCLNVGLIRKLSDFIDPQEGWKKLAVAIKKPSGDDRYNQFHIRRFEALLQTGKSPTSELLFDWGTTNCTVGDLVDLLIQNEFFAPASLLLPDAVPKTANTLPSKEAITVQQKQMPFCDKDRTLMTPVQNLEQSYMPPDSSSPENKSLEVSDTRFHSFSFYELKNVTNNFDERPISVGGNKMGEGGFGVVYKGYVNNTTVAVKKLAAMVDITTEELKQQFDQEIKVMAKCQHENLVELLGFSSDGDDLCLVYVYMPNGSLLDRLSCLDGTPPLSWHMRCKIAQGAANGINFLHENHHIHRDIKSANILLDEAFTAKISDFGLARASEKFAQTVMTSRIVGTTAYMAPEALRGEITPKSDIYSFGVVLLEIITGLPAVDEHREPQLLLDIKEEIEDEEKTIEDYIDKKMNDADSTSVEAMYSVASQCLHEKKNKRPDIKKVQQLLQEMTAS
The data set can be described thus: Potency of takinib analogues against IRAK4. In kind it is biochemical.

IRAK1, sequence (P51617 whole entry): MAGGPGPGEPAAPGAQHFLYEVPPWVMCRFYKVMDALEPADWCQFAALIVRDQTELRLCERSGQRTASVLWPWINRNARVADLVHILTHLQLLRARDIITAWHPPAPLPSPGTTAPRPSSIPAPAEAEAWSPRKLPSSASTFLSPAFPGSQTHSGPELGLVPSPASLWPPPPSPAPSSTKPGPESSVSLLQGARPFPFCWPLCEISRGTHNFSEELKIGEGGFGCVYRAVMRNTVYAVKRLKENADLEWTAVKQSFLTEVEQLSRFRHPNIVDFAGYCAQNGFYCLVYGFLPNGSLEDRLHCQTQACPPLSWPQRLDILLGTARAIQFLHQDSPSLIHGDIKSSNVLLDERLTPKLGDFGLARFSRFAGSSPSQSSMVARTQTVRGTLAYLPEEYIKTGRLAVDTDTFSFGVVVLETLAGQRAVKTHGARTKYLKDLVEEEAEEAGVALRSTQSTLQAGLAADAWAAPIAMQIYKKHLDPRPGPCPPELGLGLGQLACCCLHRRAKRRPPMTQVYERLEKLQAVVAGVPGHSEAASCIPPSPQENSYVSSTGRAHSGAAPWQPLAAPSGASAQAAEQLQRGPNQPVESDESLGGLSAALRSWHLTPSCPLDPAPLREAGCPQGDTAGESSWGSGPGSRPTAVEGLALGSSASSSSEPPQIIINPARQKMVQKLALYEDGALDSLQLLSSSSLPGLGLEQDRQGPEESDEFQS

The IC50 is the midpoint of a concentration-inhibition curve. As a reminder, the Cmax is the highest concentration seen after dosing. A word on the Tmax: it is the time at which the peak concentration occurs. In general, half-life refers to the time needed for the level to fall by half in the phase considered. Read a low half-life as rapid decline. Regarding `CCCn1c(NC(=O)c2cccc(C(N)=O)c2)nc2ccc(CN3CCCCC3)cc21` [HS-276], the IC50 in data set [1] was found to be 63 nM. Besides, the “reduction of TNF expression” value in data set [2] is given as 11 fold. In addition, in data set [3], the IC50 was found to be 8 nM. Further, the “time up to which μM serum levels are shown” value in data set [4] (post oral gavage, species not stated) was “up to 8 h”. In data set [4] (rat, 50 mg/kg oral gavage), the “time up to which μM plasma concentration is shown” value fell in the range of 8 to 12 h. Moreover, in data set [4] (rat, 50 mg/kg oral gavage, at 12 h), the peak urine concentration came to 100 µM. In addition, in data set [4] (rat, PO, 50 mg/kg), the AUC0-last was 6462 ng·h/mL, the Cmax amounted to 1890 ng/mL, the Tmax turned out to be 2 h and the half-life was 5.46 h. This compound also returned an enzymatic activity in data set [5] of under 15%. Besides, in data set [6] (Figure 2d), the “IRAK4 inhibition in dose–response experiments” value is reported as “minimal IRAK4 inhibition”. In addition, the Ratio in data set [6] (IRAK4 IC50 over TAK1 IC50) was 1000. The IC50 in data set [6] (read-out: IRAK4 IC50) was 2500 nM. Besides, the “preference for TAK1 over IRAK4” value in data set [6] (selectivity) is 1000 fold.
